The values below come from US11649218B2, “C-Abl tyrosine kinase inhibitory compound embodiments and methods of making and using the same” (The USA, as represented by the Secretary, Dept. of Health …, priority 2018, dated 2023).

Data set [1] deals with APP/PSEN1 mice. Nature of the data set: APP/PSEN1 AD mice model, water maze, Barnes maze and brain histology. The conditions noted are these: water maze.
Excerpt: The Barnes maze test is a more sensible test that detects the earlier and subtle cognitive alterations.
For data set [2], the system named is Leukemia K562 cell. In words: Leukemia K562 cell proliferation/viability assay (CellTiterGlo, 48 hours). It is filed as cell-based. More on the design: unit not given here. The conditions noted are these: K562 cells. Put shortly:
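BCR-Abl-dependent K562 cells treated with compound for 48 hours in an HTS-adapted format. Viability read out with CellTiterGlo reagent.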
For orientation: In ATP-based viability assays light output follows the ATP content of the culture.

Data set [3] has as its system P. falciparum strain NF54 asexual parasites. Nature of the data set: Asexual stage parasite growth inhibition, SYBR Green assay, 72 hours. It is filed as cell-based. The conditions noted are these: NF54, 72 hours. On the procedure:
In this example, several of the c-Abl inhibitors were tested in the asexual […] strain of P. falciparum parasites for activity against malaria. […] The pre-diluted parasites were dispensed into a 1536-well plate (2.5 μL/well). […] The fluorescence of each well was measured at 520 nm following excitation at 490 nm using a ViewLux platereader (PerkinElmer).

Data set [4] relates to TLE mice model. Nature of the data set: Pilocarpine-induced status epilepticus (SE) after 15 days of supplemented diet. More on the design: Survival % / Survival %, mean: concentration or dose not given beside the values. It is filed as in vivo, mice (C57BL/6). As for the experimental part:
(§1) In this example, the ability of compound embodiments of the present disclosure to increase survival and diminish seizure symptoms in a TLE mice model was evaluated. […] The animals' weights were determined the week before and during the two weeks of c-Abl inhibitors treatment (results are provided in Table 12 and are illustrated graphically in FIG. 28). After 15 days of feeding, status epilepticus (SE) induction was evaluated. The mice were IP injected with Scopolamine (1.5 mg/Kg) and after 15 minutes, the SE was induced by IP injection of Pilocarpine (420 mg/Kg). The animals' behavior and the seizures induction was evaluated according to Racine's scale and the survival was determined during 60 minutes post-SE induction. […] Results are tabulated in Table 13, below and also are illustrated graphically in FIGS. 29A-29D.

A short description of data set [5]: Blood and serum analysis after one month of supplemented diet. The format is in vivo, mice (C57BL/6×C3H). The conditions noted are these: 1 month diet (Nilotinib 200 ppm; NCGC00373060 67 ppm), individual mice. An excerpt:
After this one-month period, blood and serum was obtained from the mice and analyzed.

Data set [6] is described as follows: Body weight during supplemented diet in TLE mice study. It is filed as in vivo, mice (C57BL/6). On the procedure:
as §1

Data set [7] relates to neurons. In words: Apoptotic nuclei induced by Aβ fibrils, Hoescht staining. It is filed as cell-based. On the procedure: Additional results from another compound embodiment, NCGC00355553, are provided by FIG. 9C. Apoptotic nuclei were evaluated by Hoescht staining.
Setting [8] is: individual mice, diet 67 ppm NCGC00373060 or 200 ppm Nilotinib.
Where [9] appears, read: mean, diet 67 ppm NCGC00373060 or 200 ppm Nilotinib.

Values joined by “and” are separate entries in the source; they are usually repeats but may differ in a detail not shown here. Identical values can stand only once.

As for `CS(=O)(=O)Nc1cccc(-c2ccc3c(c2)C(=O)Nc2cc(OC(F)(F)F)ccc2N3)c1` [NCGC00355551, N-(3-(11-Oxo-8-(trifluoromethoxy)-10,11-dihydro-5H-dibenzo[b,e][1,4]diazepin-2-yl)phenyl)methanesulfonamide], the “cognitive decline in APP/PSEN1 mice” value in data set [1] is recorded as “protects APP/PSEN1 mice against cognitive decline”. The compound also had an Efficacy in data set [2] of −85.3.
The term IC50 denotes the concentration that gives 50% inhibition. Regarding `Cc1cn(-c2cc(NC(=O)c3ccc(C)c(Nc4nccc(-c5cccnc5)n4)c3)cc(C(F)(F)F)c2)cn1` [Nilotinib], the “% Killing” value in data set [3] was 98.7%. The compound also yielded an IC50 in data set [3] (Plasmodium falciparum) of 0.648 µM. The compound further showed a Survival % in data set [4] (individual mice, 60 minutes post-SE induction) of 100%. Further, the “Latency SE” value in data set [4] (setting [8]) is 30 min and 22 min. Also, the “Survival %, mean” value in data set [4] (mean, 60 minutes post-SE induction) was determined as 100%. For the same compound, in data set [4] (setting [9]), the “Latency SE, mean” value was 26 min and the “SE %, mean” value came to 40%. In data set [2], this compound yielded an Efficacy of −86.5. Moreover, in data set [5], the ALT is 36.0 IU/L and 26.0 IU/L; the AST was 142.0 IU/L and 114.0 IU/L; the Alkaline phosphatase is 386.4 IU/ and 278.2 IU/; the “Bacilliformes” value is 0 µL⁻¹. Besides, in data set [5], the “Bacilliformres (%)” value is recorded as 0%; the Blastos was determined as 0 µL⁻¹; the Blood urea nitrogen is 19.7 mg/dL and 18.2 mg/dL; the C.H.C.M. was 29.3 g/dL and 28.9 g/dL. Also, in data set [5], the Calcium is 10.4 mg/dL and 10.2 mg/dL; the Creatinine was 1.0 mg/dL and 0.8 mg/dL; the “Eosinophils” value was 32 µL⁻¹ and 0 µL⁻¹; the “Eosinophils (%)” value is 1% and 0%. For the same compound, in data set [5], the Erythrocytes was 5.9e+06 µL⁻¹ and 8.6e+06 µL⁻¹; the “Glucose (without fluoride)” value is 84.0 mg/dL and 56.0 mg/dL; the H.C.M. was 14.9 pg/cel and 14.7 pg/cel; the Hematocrit is 30.0% and 43.6%. Besides, in data set [5], the Hemoglobin is 8.8 g/dL and 12.6 g/dL; the Juvenile was 0 µL⁻¹; the Leukocytes was 3,200 /μL and 3,300 /μL; the “Lymphocytes (%)” value is 60% and 62%. Also, in data set [5], the Mean platelet vol. is 6.9 fL and 6.1 fL; the “Monocytes (%)” value was 4% and 15%; the Morphology leukocytes result is given as “Normal”; the Myelocytes came to 0 µL⁻¹. In data set [5], the “Reticulocytes (%)” value was 0.5% and 0.6%; the “Reticulocytes (×10^3/μL)” value was 29.6 ×10^3/μL and 51.3 ×10^3/μL; the “Segmented” value came to 759 µL; the “Segmented (%)” value is 35% and 23%. In addition, in data set [5], the “Segmented (μL)” value is 1,120 μL; the Thrombocyte morphology result was “Normal”; the Thrombocytes is 780,000 /μL and 689,000 /μL; the Total cholesterol was 114.0 mg/dL and 84.0 mg/dL. Further, in data set [5], the V.C.M. is 50.8 fL and 51.0 fL; the V.H.S. was 3.0 and 6.0; the Weight is 42.7 g and 25.2 g; the “Youth (%)” value is recorded as 0%. Besides, in data set [5] (absolute count), the Lymphocytes is 1,920 and 2,046; the Monocytes was 128 and 495. Besides, in data set [6] (setting [8]), the “Body weight week 4” value was 17 gr (2×) and 19 gr and 15 gr (2×) and 14 gr (2×) and 18 gr (2×); the “Body weight week 5” value was 18 gr (3×) and 21 gr and 17 gr and 19 gr and 16 gr and 20 gr (2×). Further, the “Body weight week 3” value in data set [6] (individual mice, week before diet (67 ppm NCGC00373060 or 200 ppm Nilotinib)) is 15 gr (2×) and 18 gr and 11 gr and 9 gr (2×) and 12 gr and 14 gr and 16 gr. In addition, in data set [6] (setting [9]), the “Body weight week 4, mean” value is reported as 16 gr and the “Body weight week 5, mean” value is 19 gr. Further, in data set [6] (mean, week before diet (67 ppm NCGC00373060 or 200 ppm Nilotinib)), the “Body weight week 3, mean” value was 13 gr.
Turning to `O=C1Nc2cc(OC(F)(F)F)ccc2Nc2ccc(-c3cn[nH]c3)cc21` [NCGC00355553, 2-(1H-Pyrazol-4-yl)-8-(trifluoromethoxy)-5,10-dihydro-1-dibenzo[b,e][1,4]diazepin-11-one], in data set [7], the “apoptotic nuclei induced by Aβ fibrils” value was “prevent increases in apoptotic nuclei induced by Aβ fibrils”.
